Key:
[1] = biological target: T1, human IMPDH2 (Homo sapiens, UniProt P12268, Y12A); test: NADH absorbance ([…] nm) activity assay with GTP dose-response; […] inhibited at […] GTP; assay type: biochemical
T1 construct: full-length hIMPDH2, non-assembling mutant

[2] = biological target: T2, human IMPDH2 (Homo sapiens, UniProt P12268); test: cryo-EM structures ([…] Å fully compressed filament segment; […] Å free octamer), plus GTP inhibition kinetics of purified enzyme; assay type: biochemical
T2 construct: full-length hIMPDH2 (SUMO tag removed)

[3] = biological target: T2, human IMPDH2; test: cryo-EM structure ([…] Å filament assembly interface); NAD+ saturation kinetics; assay type: binding

T2 sequence (P12268 2-514): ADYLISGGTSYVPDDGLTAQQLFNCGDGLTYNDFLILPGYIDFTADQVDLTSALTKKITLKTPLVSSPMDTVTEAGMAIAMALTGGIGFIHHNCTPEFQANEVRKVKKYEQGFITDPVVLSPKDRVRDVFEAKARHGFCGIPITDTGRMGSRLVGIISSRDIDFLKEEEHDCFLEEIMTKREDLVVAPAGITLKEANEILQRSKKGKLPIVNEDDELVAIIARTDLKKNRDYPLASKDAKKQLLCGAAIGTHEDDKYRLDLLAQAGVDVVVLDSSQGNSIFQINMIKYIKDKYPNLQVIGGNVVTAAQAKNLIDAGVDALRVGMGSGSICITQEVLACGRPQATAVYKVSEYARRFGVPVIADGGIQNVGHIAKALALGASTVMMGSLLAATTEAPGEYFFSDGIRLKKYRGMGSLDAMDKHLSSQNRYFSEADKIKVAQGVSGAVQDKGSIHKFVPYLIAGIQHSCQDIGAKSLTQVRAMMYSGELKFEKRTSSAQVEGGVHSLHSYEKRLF
T1 sequence (P12268 2-514 Y12A): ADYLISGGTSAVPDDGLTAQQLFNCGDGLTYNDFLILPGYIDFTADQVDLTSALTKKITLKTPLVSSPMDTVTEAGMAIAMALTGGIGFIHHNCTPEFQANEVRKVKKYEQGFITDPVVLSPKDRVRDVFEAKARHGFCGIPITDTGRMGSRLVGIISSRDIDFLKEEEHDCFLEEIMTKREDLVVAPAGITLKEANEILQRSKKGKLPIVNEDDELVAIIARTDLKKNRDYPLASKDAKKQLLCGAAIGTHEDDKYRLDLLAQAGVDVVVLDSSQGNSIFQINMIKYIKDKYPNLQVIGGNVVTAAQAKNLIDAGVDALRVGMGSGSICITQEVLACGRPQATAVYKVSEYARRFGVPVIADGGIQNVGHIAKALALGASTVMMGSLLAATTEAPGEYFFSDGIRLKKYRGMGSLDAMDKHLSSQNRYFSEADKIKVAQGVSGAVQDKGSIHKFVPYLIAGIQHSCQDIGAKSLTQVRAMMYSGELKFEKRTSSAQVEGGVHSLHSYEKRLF

Row | SMILES | IC50 [1] [µM] | IC50 [2] [µM] | cryo-EM structure (3.0 Å filament assembly interface); NAD+ saturation kinetics [3]
1 | Nc1nc2c(ncn2[C@@H]2O[C@H](COP(=O)(O)OP(=O)(O)OP(=O)(O)O)[C@@H](O)[C@H]2O)c(=O)[nH]1 [GTP] | < 2000 | > 2000 | –
2 | NC(=O)c1ccc[n+]([C@@H]2O[C@H](COP(=O)([O-])OP(=O)(O)OC[C@H]3O[C@@H](n4cnc5c(N)ncnc54)[C@H](O)[C@@H]3O)[C@@H](O)[C@H]2O)c1 [NAD+] | – | – | There is strong density in the both the IMP and NAD^+ binding sites.
